Here are results for eight compounds from patent US4213984A, “11-(Piperazino-acetyl)-5,11-di hydro-6H-pyrido[2,3-b][1,4]benzodiazepin-6-ones and salts thereof” (Boehringer Ingelheim GmbH, priority 1977, dated 1980).

One series deals with stress ulcers in rats. In words: inhibiting effect on the formation of stress ulcers in rats (Takagi and Okabe), peroral. The format is in vivo. Particulars: po, rat; for inhibition in vivo at 12.5 mg/kg: 12.5 mgm/kg, read-out: Ulcer inhibition in % (rat) after peroral administration of 12.5 mgm/kg; for inhibition in vivo at 25 mg/kg: 25 mgm/kg, read-out: Ulcer inhibition in % (rat) after peroral administration of 25 mgm/kg; for inhibition in vivo at 50 mg/kg: 50 mgm/kg, read-out: Ulcer inhibition in % (rat) after peroral administration of 50 mgm/kg. The method, then:
(§1) The compounds were examined with regard to their inhibiting effect on the formation of stress ulcers in rats and their spasmolytic effect, related to atropine, with consideration of their acute toxicity.
The inhibiting effect on the formation of stress ulcers in rats was determined according to the method of K. Takagi and S. Okabe, Jap.Journ.Pharmac. 18,pp. 9 to 18 (1968). Fed female rats with a body weight between 220 and 260 gm were individually put into small wire cages and were subsequently kept vertically submerged in a water bath which was kept constant at a temperature of 23° C. for 16 hours, so that only the heads and the breastbones of the animals were above the water surface. The test compounds were administered perorally 5 to 10 minutes before. With each substance five animals were treated. 1 ml of a 0.9% physiological sodium chloride solution or 1 ml of a 1% tylose solution was administered to the control animals in the same way. After 18 hours the animals were killed by an overdose of ethyl chloride, the stomachs were excised, cut along the big curvature and spread on a cork plate. The evaluation was carried out according to the methods of Marazzi-Uberti and Turba, Med. Exp. 4, pp. 284 to 292 (1961), and Takagi and Okabe (supra)

The test system of the next series is guinea pig colon. In words: spasmolytic effect in vitro on the guinea pig colon, acetylcholine-induced spasms, compared with atropinesulfate. Particulars: acetylcholine spasm, relative to Atropine = 1. The method, then:
as §1
The spasmolytic effect was determined in vitro on the guinea pig colon, using the experimental arrangement according to R. Magnus, Pflugers Archiv, 102, pp. 123 (1904). Acetylcholine was taken to induce spasms, the substance for comparison was atropinesulfate. The spasticum was administered one minute before the administration of the spasmolytic substance, and the spasmolytic was allowed to take effect for 1 minute.

Series [1] is described as follows: acute toxicity after peroral administration to fasted white mice. The format is in vivo. The following applies: in vivo, po, mouse, observation period 14 days, read-out: LD50 peroral mgm/kg mouse. The method, then: (§2) The acute toxicity was determined after peroral administration of the test substance to fasted white mice with a body weight of 18 to 20 gm. The observation period was 14 days. For each dosage a group of six mice was used.

The next series deals with white mice. The series is described as above. Particulars: mouse, six mice per dosage, at the LD50 dose. The format is in vivo. The method, then:
as §2

As to `O=C1Nc2cccnc2N(C(=O)CN2CCN(CC34CC5CC(CC(C5)C3)C4)CC2)c2ccccc21` [D, 11-{[4-(1-Adamantyl-methyl)-1-piperazinyl]acetyl}-5,11-dihydro-6-H-pyrido[2,3-b][1,4]benzodiazepin-6-one], in the series with stress ulcers in rats, the inhibition in vivo at 12.5 mg/kg came out at 26%, the inhibition in vivo at 25 mg/kg came out at 47% and the inhibition in vivo at 50 mg/kg stood at 79%. Moreover, the “Spasmolysis (acetylcholine) in respect to Atropine = 1” value (“Spasmolysis (acetylcholine)” below) in the series with guinea pig colon is given as 1/86. In addition, in series [1], the LD50 at 336 h is above 3000 mg/kg. For the same compound, the “number of animals that died” value in the series on white mice is given as “+ (means, 0 of 6 animals died)”.

As for `C=C(C)CN1CCN(CC(=O)N2c3ccccc3C(=O)Nc3cccnc32)CC1` [A, 5,11-Dihydro-11-{[4-(2-methyl-allyl)-1-piperazinyl]acetyl}-6H-pyrido[2,3-b][1,4]benzodiazepin-6-one], in the series with stress ulcers in rats, the inhibition in vivo at 12.5 mg/kg came out at 32%, the inhibition in vivo at 25 mg/kg is 52% and the inhibition in vivo at 50 mg/kg was found to be 90%. The “Spasmolysis (acetylcholine)” value with guinea pig colon is 1/330. In addition, the LD50 at 336 h in series [1] is above 3000 mg/kg. Further, the “number of animals that died” value with white mice was “+ (means, 0 of 6 animals died)”.

Regarding `CC1CN(C)CCN1CC(=O)N1c2ccccc2C(=O)Nc2cccnc21.Cl` (stereo not drawn) [F, 5,11-Dihydro-11-[(2,4-dimethyl-1-piperazinyl)acetyl]-6H-pyrido-[2,3-b][1,4]benzodiazepin-6-one-hydrochloride], in the series with stress ulcers in rats, the inhibition in vivo at 12.5 mg/kg turned out to be 84%, the inhibition in vivo at 25 mg/kg was 90% and the inhibition in vivo at 50 mg/kg stood at 95%. Besides, the “Spasmolysis (acetylcholine)” value in the series with guinea pig colon is on record as 1/130. The LD50 at 336 h in series [1] was above 3000 mg/kg. In addition, the “number of animals that died” value with white mice was “++ (means, 1 of 6 animals died)”.

As to `CC(C)(C)CN1CCN(CC(=O)N2c3ccccc3C(=O)Nc3cccnc32)CC1` [C, 5,11-Dihydro-11-{[4-(2,2-dimethyl-propyl)-1-piperazinyl]acetyl}-6H-pyrido[2,3-b][1,4]benzodiazepin-6-one], in the series on stress ulcers in rats, the inhibition in vivo at 12.5 mg/kg turned out to be 39%, the inhibition in vivo at 25 mg/kg was found to be 61% and the inhibition in vivo at 50 mg/kg worked out at 95%. The “Spasmolysis (acetylcholine)” value with guinea pig colon was 1/70. The LD50 at 336 h in series [1] was above 1500 mg/kg. The “number of animals that died” value in the series with white mice is listed as “+ (means, 0 of 6 animals died)”.

For the compound `CN1C(=O)c2ccccc2N(C(=O)CN2CCN(Cc3ccc4c(c3)OCO4)CC2)c2ncccc21` [G, 5,11-Dihydro-5-methyl-11-{[4-(3,4methylenedioxy-benzyl)-1-piperazinyl]acetyl}-6H-pyrido[2,3-b][1,4]benzodiazepin-6-one], in the series on stress ulcers in rats, the inhibition in vivo at 12.5 mg/kg stood at 21%, the inhibition in vivo at 25 mg/kg came out at 58% and the inhibition in vivo at 50 mg/kg amounted to 90%. Also, the “Spasmolysis (acetylcholine)” value with guinea pig colon is given as 1/290. For the same compound, the LD50 at 336 h in series [1] is above 1500 mg/kg. In addition, the “number of animals that died” value with white mice is “+++ (means, 2 of 6 animals died)”.

For the compound `CC(C)=CCN1CCN(CC(=O)N2c3ccccc3C(=O)Nc3cccnc32)CC1.Cl.Cl` [B, 5,11-Dihydro-11-{[4-(3-methyl-but-2-enyl)-1-piperazinyl]acetyl}-6H-pyrido[2,3-b][1,4]benzodiazepin-6-one dihydrochloride], in the series on stress ulcers in rats, the inhibition in vivo at 12.5 mg/kg is 52%, the inhibition in vivo at 25 mg/kg worked out at 63% and the inhibition in vivo at 50 mg/kg was found to be 84%. Moreover, the “Spasmolysis (acetylcholine)” value with guinea pig colon was 1/200. Further, in series [1], the LD50 at 336 h is above 1500 mg/kg. In addition, the “number of animals that died” value in the series with white mice was “+ (means, 0 of 6 animals died)”.

Turning to `O=C1Nc2cccnc2N(C(=O)CN2CCN(CC=Cc3ccccc3)CC2)c2ccccc21` [H, 11-[(4-Cinnamyl-1-piperazinyl)acetyl]-5,11-dihydro-6H-pyrido-[2,3-b][1,4]benzodiazepin-6-one], in the series with stress ulcers in rats, the inhibition in vivo at 12.5 mg/kg is 53%, the inhibition in vivo at 25 mg/kg was 69% and the inhibition in vivo at 50 mg/kg worked out at 95%. Besides, in the series on guinea pig colon, the “Spasmolysis (acetylcholine)” value was 1/700. Also, the LD50 at 336 h in series [1] is around 3000 mg/kg. Besides, the “number of animals that died” value with white mice is reported as “++++ (means, 4 of 6 animals died)”.

As for `O=C1Nc2cccnc2N(C(=O)CN2CCN(Cc3ccc4c(c3)OCO4)CC2)c2ccccc21` [E, 5,11-Dihydro-11-{[4-(3,4-methylenedioxy-benzyl)-1-piperazinyl]-acetyl}-6H-pyrido[2,3-b][1,4]benzodiazepin-6-one], in the series with stress ulcers in rats, the inhibition in vivo at 12.5 mg/kg came to 37%, the inhibition in vivo at 25 mg/kg was found to be 73% and the inhibition in vivo at 50 mg/kg amounted to 95%. For the same compound, the “Spasmolysis (acetylcholine)” value with guinea pig colon is 1/78. Moreover, in series [1], the LD50 at 336 h is above 3000 mg/kg. Also, in the series on white mice, the “number of animals that died” value was “+++ (means, 2 of 6 animals died)”.
